Data reported in patent US20060069132A1, “Azolecarboxamide herbicides” (priority 2004, published 2006).

Tests used:
[1] = test system: lambsquarters; assay: Test B pre-/postemergence herbicide test; type: in vivo, Chenopodium album; conditions: for Plant response rating (0 to 100 scale), Lambsquarters: 0 is no effect
How it was run: (§1)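 Visual rating, 0 (no effect) to 100 (complete control), versus untreated controls after 13–15 d in greenhouse. Pre- and postemergence applications (postemergence plants 2–18 cm, 1–4 leaves); flooded paddy arm at 2-leaf stage. Compounds in non-phytotoxic solvent plus surfactant.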

[2] = test system: wheat; assay: Test B postemergence herbicide test; type: in vivo, Triticum aestivum; design: key to Wheat plant response rating: 0 = no effect, 100 = complete control
How it was run: (§2)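 Plants grow to 1- to 4-leaf stage (2–18 cm) for postemergence spraying, or to 2-leaf stage for the paddy test. Formulated compound is applied. Greenhouse holding lasts 13–15 days. Response is scored visually relative to controls, 0 no effect to 100 complete control; a dash means no result.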

[3] = test system: wild oat; assay: Test B postemergence herbicide test; type: in vivo, Avena fatua
How it was run: as §2

[4] = test system: pigweed; assay: Test B pre-/postemergence herbicide test; type: in vivo, Amaranthus retroflexus; conditions: for Plant response rating (0 to 100 scale), Pigweed: 0 is no effect
How it was run: as §1

[5] = test system: barnyardgrass; assay: Test B pre-/postemergence herbicide test; type: in vivo, Echinochloa crus-galli; conditions: for Plant response rating (0 to 100 scale), Barnyardgrass: 0 is no effect
How it was run: (§3)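 Species tested were Echinochloa crus-galli, Ipomoea coccinea, Xanthium strumarium and Oryza sativa, treated both before emergence and at the 1- to 4-leaf stage; rice and barnyardgrass were also tested under flooding at 2 leaves. Greenhouse incubation lasted 13–15 days before visual 0–100 scoring.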

[6] = test system: giant foxtail; assay: Test B pre-/postemergence herbicide test; type: in vivo, Setaria faberi; conditions: for Plant response rating (0 to 100 scale), Foxtail, Giant: 0 is no effect
How it was run: as §1

[7] = test system: cocklebur; assay: Test B pre-/postemergence herbicide test; type: in vivo, Xanthium strumarium; conditions: for Plant response rating (0 to 100 scale), Cocklebur: 0 is no effect
How it was run: as §3

[8] = test system: velvetleaf; assay: Test B pre-/postemergence herbicide test; type: in vivo, Abutilon theophrasti; conditions: for Plant response rating (0 to 100 scale), Velvetleaf: 0 is no effect, preemergence
How it was run: as §1

[9] = test system: Surinam grass; assay: Test B pre-/postemergence herbicide test; type: in vivo, Urochloa decumbens; conditions: for Plant response rating (0 to 100 scale), Surinam Grass: 0 is no effect
How it was run: as §1

[10] = test system: large crabgrass; assay: Test B pre-/postemergence herbicide test; type: in vivo, Digitaria sanguinalis; conditions: for Plant response rating (0 to 100 scale), Crabgrass, Large: 0 is no effect
How it was run: as §1

[11] = test system: barnyardgrass; assay: Test B flooded paddy test; type: in vivo, Echinochloa crus-galli; conditions: 1000 g ai/ha, scale 0 to 100 (0 no effect, 100 complete control)
How it was run: as §2

[12] = test system: blackgrass; assay: Test B postemergence herbicide test; type: in vivo, Alopecurus myosuroides
How it was run: as §2

[13] = test system: rice; assay: Test B flooded paddy test; type: in vivo, Oryza sativa; conditions: 1000 g ai/ha, scale 0 to 100 (0 no effect, 100 complete control)
How it was run: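 Read-out: visual comparison with controls, scored 0 to 100, where 100 means complete control and 0 no effect. Formulated chemicals were applied postemergence to plants 2–18 cm tall (1- to 4-leaf), or to flooded-paddy plants at the 2-leaf stage, then held 13 to 15 days under glass.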

[14] = test system: morningglory; assay: Test B pre-/postemergence herbicide test; type: in vivo, Ipomoea coccinea; conditions: for Plant response rating (0 to 100 scale), Morningglory: 0 is no effect, 100 is complete control
How it was run: as §3

[15] = test system: corn; assay: Test B pre-/postemergence herbicide test; type: in vivo, Zea mays; conditions: for Plant response rating (0 to 100 scale), Corn: 0 is no effect
How it was run: as §1

[16] = test system: ducksalad; assay: Test B flooded paddy test; type: in vivo, Heteranthera limosa; conditions: 1000 g ai/ha, scale 0 to 100 (0 no effect, 100 complete control)
How it was run: as §2

[17] = test system: small flower umbrella sedge; assay: Test B flooded paddy test; type: in vivo, Cyperus difformis; conditions: 1000 g ai/ha, scale 0 to 100 (0 no effect, 100 complete control)
How it was run: as §2

[18] = 125 g ai/ha, 100 is complete control, preemergence
[19] = 125 g ai/ha, visual rating, scale 0 (no effect) to 100 (complete control), postemergence
[20] = Postemergence, 500 g ai/ha, scale 0 (no effect) to 100 (complete control)
[21] = 500 g ai/ha, scale 0 to 100, 0 no effect, 100 complete control, preemergence
[22] = 125 g ai/ha, 100 is complete control
[23] = postemergence, 125 g ai/ha, scale 0 to 100
[24] = Postemergence, 125 g ai/ha, scale 0 (no effect) to 100 (complete control)
[25] = 500 g ai/ha, visual rating, 0 = no effect, 100 = complete control, preemergence
[26] = postemergence, 500 g ai/ha, scale 0 to 100, 0 is no effect, 100 is complete control

Cc1nn(C(C)C)nc1C(=O)Nc1cc(C(=O)N(C)C)ccc1F [Compound 400]
0: Plant response rating (0 to 100 scale), Lambsquarters [1, 18] | Lambsquarters plant response rating [1, 19] | Wheat plant response rating [2, 19] | Wheat plant response rating [2, 21] | Wheat plant response rating [2, 20] | Oat, Wild plant response rating [3, 19] | Oat, Wild plant response rating [3, 20] | Plant response rating (0 to 100 scale), Pigweed [4, 18] | Pigweed plant response rating [4, 19] | Plant response rating (0 to 100 scale), Barnyardgrass [5, 18] | Barnyardgrass plant response rating [5, 19] | Barnyardgrass plant response rating [5, 20] | Plant response rating (0 to 100 scale), Foxtail, Giant [6, 18] | Foxtail, Giant plant response rating [6, 19] | Foxtail, Giant plant response rating [6, 20] | Plant response rating (0 to 100 scale), Cocklebur [7, 18] | Cocklebur plant response rating [7, 19] | Cocklebur plant response rating [7, 20] | Plant response rating (0 to 100 scale), Velvetleaf [8, 22] | Velvetleaf plant response rating [8, 19] | Plant response rating (0 to 100 scale), Surinam Grass [9, 18] | Surinam Grass plant response rating [9, 19] | Surinam Grass plant response rating [9, 20] | Plant response rating (0 to 100 scale), Crabgrass, Large [10, 18] | Crabgrass, Large plant response rating [10, 19] | Crabgrass, Large plant response rating [10, 20] | Barnyardgrass plant response rating [11] | Blackgrass plant response rating [12, 19] | Blackgrass plant response rating [12, 20] | Rice plant response rating [13] | Plant response rating (0 to 100 scale), Morningglory ([14]; 125 g ai/ha, preemergence) | Morningglory plant response rating [14, 19] | Morningglory plant response rating [14, 20] | Plant response rating (0 to 100 scale), Corn [15, 18] | Corn plant response rating [15, 19] | Corn plant response rating [15, 20]
10: Lambsquarters plant response rating [1, 20]
80: Sedge, Umbrella plant response rating [17]
20: Pigweed plant response rating [4, 20] | Ducksalad plant response rating [16]
30: Velvetleaf plant response rating [8, 20]

CCNC(=O)c1cncc(NC(=O)c2nn(C(C)(C)C)nc2C)c1 [Compound 427]
20: Pigweed plant response rating [4, 23] | Blackgrass plant response rating [12, 20] | Morningglory plant response rating [14, 23]
10: Plant response rating (0 to 100 scale), Lambsquarters [1, 18] | Lambsquarters plant response rating [1, 23] | Foxtail, Giant plant response rating [6, 20] | Cocklebur plant response rating [7, 20] | Cocklebur plant response rating [7, 23] | Velvetleaf plant response rating [8, 23] | Surinam Grass plant response rating [9, 20]
40: Lambsquarters plant response rating [1, 20] | Pigweed plant response rating [4, 20]
0: Wheat plant response rating [2, 21] | Wheat plant response rating [2, 20] | Wheat plant response rating [2, 23] | Oat, Wild plant response rating [3, 20] | Oat, Wild plant response rating [3, 23] | Plant response rating (0 to 100 scale), Barnyardgrass [5, 18] | Barnyardgrass plant response rating [5, 24] | Barnyardgrass plant response rating [5, 20] | Plant response rating (0 to 100 scale), Foxtail, Giant [6, 18] | Foxtail, Giant plant response rating [6, 23] | Plant response rating (0 to 100 scale), Cocklebur [7, 18] | Plant response rating (0 to 100 scale), Velvetleaf [8, 22] | Plant response rating (0 to 100 scale), Surinam Grass [9, 18] | Surinam Grass plant response rating [9, 23] | Plant response rating (0 to 100 scale), Crabgrass, Large [10, 18] | Crabgrass, Large plant response rating [10, 23] | Barnyardgrass plant response rating [11] | Blackgrass plant response rating [12, 23] | Rice plant response rating [13] | Plant response rating (0 to 100 scale), Morningglory ([14]; 125 g ai/ha, preemergence) | Plant response rating (0 to 100 scale), Corn [15, 18] | Corn plant response rating [15, 20] | Corn plant response rating [15, 23] | Ducksalad plant response rating [16] | Sedge, Umbrella plant response rating [17]
30: Plant response rating (0 to 100 scale), Pigweed [4, 18] | Velvetleaf plant response rating [8, 20] | Crabgrass, Large plant response rating [10, 20] | Morningglory plant response rating [14, 20]

CCn1nc(C(C)(C)C)cc1C(=O)Nc1cc(OCCF)ccc1F [Compound 350]
30: Foxtail, Giant plant response rating [6, 26]
20: Cocklebur plant response rating [7, 26] | Corn plant response rating [15, 26]
60: Pigweed plant response rating [4, 26]
10: Lambsquarters plant response rating [1, 26] | Velvetleaf plant response rating [8, 26] | Surinam Grass plant response rating [9, 26] | Crabgrass, Large plant response rating [10, 26]
0: Plant response rating (0 to 100 scale), Lambsquarters [1, 18] | Lambsquarters plant response rating [1, 19] | Plant response rating, Lambsquarters [1, 25] | Wheat plant response rating [2, 19] | Wheat plant response rating [2, 26] | Oat, Wild plant response rating [3, 19] | Oat, Wild plant response rating [3, 26] | Plant response rating (0 to 100 scale), Pigweed [4, 18] | Pigweed plant response rating [4, 19] | Plant response rating, Pigweed [4, 25] | Plant response rating (0 to 100 scale), Barnyardgrass [5, 18] | Barnyardgrass plant response rating [5, 19] | Plant response rating, Barnyardgrass [5, 25] | Barnyardgrass plant response rating [5, 26] | Plant response rating (0 to 100 scale), Foxtail, Giant [6, 18] | Foxtail, Giant plant response rating [6, 19] | Plant response rating, Foxtail, Giant [6, 25] | Plant response rating (0 to 100 scale), Cocklebur [7, 18] | Cocklebur plant response rating [7, 19] | Plant response rating, Cocklebur [7, 25] | Plant response rating (0 to 100 scale), Velvetleaf [8, 22] | Velvetleaf plant response rating [8, 19] | Plant response rating (0 to 100 scale), Surinam Grass [9, 18] | Surinam Grass plant response rating [9, 19] | Plant response rating, Surinam Grass [9, 25] | Plant response rating (0 to 100 scale), Crabgrass, Large [10, 18] | Crabgrass, Large plant response rating [10, 19] | Plant response rating, Crabgrass, Large [10, 25] | Barnyardgrass plant response rating [11] | Blackgrass plant response rating [12, 19] | Blackgrass plant response rating [12, 26] | Rice plant response rating [13] | Plant response rating (0 to 100 scale), Morningglory ([14]; 125 g ai/ha, preemergence) | Morningglory plant response rating [14, 19] | Plant response rating, Morningglory [14, 25] | Plant response rating (0 to 100 scale), Corn [15, 18] | Corn plant response rating [15, 19] | Plant response rating, Corn [15, 25] | Ducksalad plant response rating [16] | Sedge, Umbrella plant response rating [17]

CCNC(=O)c1ccnc(NC(=O)c2nn(C(C)(C)C)nc2C)c1 [Compound 424]
90: Plant response rating (0 to 100 scale), Pigweed [4, 18] | Plant response rating (0 to 100 scale), Crabgrass, Large [10, 18]
60: Pigweed plant response rating [4, 20]
20: Plant response rating (0 to 100 scale), Barnyardgrass [5, 18] | Plant response rating (0 to 100 scale), Foxtail, Giant [6, 18] | Foxtail, Giant plant response rating [6, 23] | Cocklebur plant response rating [7, 23] | Plant response rating (0 to 100 scale), Velvetleaf [8, 22] | Surinam Grass plant response rating [9, 23] | Rice plant response rating [13]
70: Plant response rating (0 to 100 scale), Lambsquarters [1, 18] | Lambsquarters plant response rating [1, 20] | Morningglory plant response rating [14, 20] | Ducksalad plant response rating [16] | Sedge, Umbrella plant response rating [17]
10: Barnyardgrass plant response rating [5, 24] | Crabgrass, Large plant response rating [10, 23] | Plant response rating (0 to 100 scale), Morningglory ([14]; 125 g ai/ha, preemergence) | Corn plant response rating [15, 20]
40: Lambsquarters plant response rating [1, 23] | Barnyardgrass plant response rating [11]
0: Wheat plant response rating [2, 20] | Wheat plant response rating [2, 23] | Oat, Wild plant response rating [3, 20] | Oat, Wild plant response rating [3, 23] | Plant response rating (0 to 100 scale), Cocklebur [7, 18] | Blackgrass plant response rating [12, 23] | Plant response rating (0 to 100 scale), Corn [15, 18] | Corn plant response rating [15, 23]
30: Pigweed plant response rating [4, 23] | Barnyardgrass plant response rating [5, 20] | Foxtail, Giant plant response rating [6, 20] | Cocklebur plant response rating [7, 20] | Velvetleaf plant response rating [8, 20] | Velvetleaf plant response rating [8, 23] | Plant response rating (0 to 100 scale), Surinam Grass [9, 18] | Surinam Grass plant response rating [9, 20] | Crabgrass, Large plant response rating [10, 20] | Morningglory plant response rating [14, 23]
50: Wheat plant response rating [2, 21] | Blackgrass plant response rating [12, 20]
